According to US20060188995A1, “Process, composition and kit for providing a stable whole blood calibrator/control” (priority 2005, published 2006):

Assays:
[1] = tested on: glycolysis in whole blood; experiment: Glucose stability of whole blood specimens with added D,L glyceraldehyde, YSI glucose concentration over weeks of storage; format: cell-based; settings: about 2° C. to about 10° C.
Method: FIG. 4 illustrates the YSI glucose concentration (mg/dL) of blood specimens containing EDTA at various final concentrations of a mixture of D,L glyceraldehydes at 0.0, 1.0, 5.0, 10.0 and 20.0 mM, obtained over 4 weeks of real time testing at about 2° C. to about 10° C.; FIG. 5 illustrates the YSI 2300 (reference analyzer) glucose concentration (mg/dL) of blood specimens treated at various concentrations of D,L glyceraldehyde over 3 weeks at about 2° C. to about 10° C., wherein the control is an untreated blood sample; In one method, a sample containing a cellular component, (i.e. RBCs, WBCs) is collected into a microfuge or vacuum tube, e.g. VACUTAINER®, (such as supplied by Becton, Dickinson and Company, Franklin Lakes, N.J.). The initial concentration of glucose in the sample can be […]. The vacuum tube may contain any appropriate anticoagulant agent known to one of ordinary skill, including oxalate, EDTA, citrate, heparin or combination thereof, to form a suspension. If used, the anticoagulant may be added together simultaneously, or sequentially, to the sample. The resulting suspension is incubated at about 2° C. to about 30° C. and allowed to undergo glycolysis until the glucose level is less than about 20 mg/dL. […]

[2] = tested on: red blood cells; experiment: RBC treatment with glyceraldehyde and subsequent removal; glucose recovery of RBCs recombined with plasma and glucose; format: cell-based, human; settings: RBCs treated with 20, 35, and 50 mM for 72 hours at 2 to 10° C., washed, after 34 days, FIG. 6
Method: FIG. 6 illustrates the YSI 2300 (reference analyzer) glucose concentration (mg/dL) of blood specimens at various concentrations of D,L glyceraldehyde respectively over 4 weeks at about 2° C. to about 10° C., wherein the control is untreated blood sample. Red blood cells were treated, washed and recombined with plasma and glucose. RBC Treatment w Glyceraldehyde & Subsequent Removal • 1) Employ fresh whole blood collected in standard anticoagulant (i.e. EDTA, heparin, sodium citrate) from a healthy adult population. Alternative blood sources may include bovine, avian, porcine, equine, goat, or alligator. • 2) Allow sufficient time for the natural enzymatic breakdown of glucose to occur (i.e. glycolysis). Deplete glucose concentration to less than about 20 mg/dl. Preferred storage at 2°-30°C. • 3) Separate RBC cellular component from plasma fraction via gravity settling and or centrifugation. If desired, the removed plasma fraction may be retained for reintroduction. • 4) Wash RBC cellular component with isotonic phosphate buffered saline solution (3×). Exchange diluent via centrifugation is preferred (15 minutes @ 1500 rpm (650× g). • 5) Adjust RBC concentration to approximately 4.0×10^6/mm^3±0.25×10^6/mm^3. […]

[3] = tested on: glycolysis in whole blood; settings: final concentration about 0.9 to 20 mM; testing within 16 hours; cited from earlier work

Question: Which “loss of YSI glucose concentration” value ([1]; 20.0 mM D,L glyceraldehyde in EDTA blood, at 4 weeks, FIG. 4) does the source give for `O=CC(O)CO` (racemic) [D,L glyceraldehyde, 2,3-dihydroxypropanal] here?
Answer: less than 10%

Question: And the “loss of YSI glucose concentration” value ([1]; 30.0 mM D,L glyceraldehyde in EDTA blood, glucose burned down then added back, at 3 weeks, FIG. 5)?
Answer: less than 3.5%

Question: What about the “loss in glucose recovery” value [2] of the same compound?
Answer: < 5%

Question: What about the “glucose loss of stabilized whole blood sample” value [3] of the same compound?
Answer: negligible glucose loss
